Data taken from US20250213183A1, “SYSTEM AND METHOD OF MONITORING NOCICEPTION AND ANALGESIA DURING ADMINISTRATION OF GENERAL ANESTHESIA” (The General Hospital Corporation, priority 2022, published 2025).

Settings: single subject, forehead sensor, after propofol; FIG. 6B

CC(C)c1cccc(C(C)C)c1O [propofol]
EDA skin conductance response (SCR) after induction of general anesthesia: < 5 micro-Siemens
